Laboratory results as given in patent publication US20200325116A1, “SOLID FORMS OF A PLASMA KALLIKREIN INHIBITOR AND SALTS THEREOF” (KALVISTA PHARMACEUTICALS LIMITED, priority 2017, published 2020).

Columns and labels:
rats = conditions: systemic administration; cited from earlier work
trypsin = assay: Enzyme selectivity, trypsin; type: biochemical, human; conditions: substrate at Km concentration
Experimental: Human serine protease enzymes plasmin, thrombin and trypsin were assayed for enzymatic activity using an appropriate fluorogenic substrate. Protease activity was measured by monitoring the accumulation of liberated fluorescence from the substrate over 5 minutes. The linear rate of fluorescence increase per minute was expressed as percentage (%) activity. The Km for the cleavage of each substrate was determined by standard transformation of the Michaelis-Menten equation.

[1] = Pharmacokinetics after a single oral dose in rats; type: in vivo; conditions: male, Sprague-Dawley, rat, 10% DMSO/10% cremophor/80% SWFI, plasma
Experimental: Pharmacokinetic studies of the compounds in Table 4 were performed to assess the pharmacokinetics following a single oral dose in male Sprague-Dawley rats. […] Following dosing, blood samples were collected over a period of […]. Sample times were 5, 15 and 30 minutes then 1, 2, 4, 6, 8 and 12 hours. Following collection, blood samples were centrifuged and the plasma fraction analysed for concentration of test compound by LCMS.

Caco-2 monolayers = assay: In vitro permeability, Caco-2 model for oral absorption; type: in vitro ADME
Experimental: (§1) In vitro permeability was determined using the Caco-2 model for oral absorption. The methodology was adapted from standard published methods (Wang Z, Hop C. E., Leung K. H. and Pang J. (2000) J Mass Spectrom 35(1); 71-76). […] For the assay, 50 μM test compound is added to the apical side of the inserts and incubated for 1 hour at 37° C. on a shaking platform (120 rpm). Apical to basolateral transport was determined by measuring the test article in both compartments by LCMS following the 1 hour incubation. The integrity of the Caco-2 monolayers was confirmed by two methods, (i) comparison of pre- and post-experiment transepithelial electrical resistance (TEER) and, (ii) assessment of Lucifer Yellow flux.

[2] = as above; type: in vitro ADME; conditions: human, Caco-2; 50 μM, apical to basolateral, 1 hour at 37° C.
Experimental: as §1

Human FXIa = target: T1, Human FXIa (Homo sapiens, UniProt P03951); assay: Determination of the % inhibition / IC50 for FXIa; type: biochemical; conditions: 25° C., substrate Z-Gly-Pro-Arg-AFC
T1 construct: purchased Enzyme Research Laboratories
Experimental: Residual enzyme activity (initial rate of reaction) was determined by measuring the change in optical absorbance at 410 nm and the IC50 value for the test compound was determined.

Human Factor XIIa = target: T2, Human Factor XIIa (Homo sapiens, UniProt P00748); assay: Determination of the IC50 for FXIIa; type: biochemical; conditions: 25° C., substrate H-DPro-Phe-Arg-AFC
T2 construct: purchased Enzyme Research Laboratories
Experimental: Factor XIIa inhibitory activity in vitro was determined using standard published methods (see e.g. Shori et al., Biochem. Pharmacol., 1992, 43, 1209; Baeriswyl et al., ACS Chem. Biol., 2015, 10 (8) 1861; Bouckaert et al., European Journal of Medicinal Chemistry 110 (2016) 181). Human Factor XIIa (Enzyme Research Laboratories) was incubated at 25° C. with the fluorogenic substrate H-DPro-Phe-Arg-AFC and various concentrations of the test compound. Residual enzyme activity (initial rate of reaction) was determined by measuring the […] and the IC50 value for the test compound was determined.

Human KLK1 = target: T3, Human KLK1 (Homo sapiens, UniProt P06870); assay: Determination of the IC50 for KLK1; type: biochemical; conditions: 25° C., substrate H-DVal-Leu-Arg-AFC
T3 construct: purchased Callbiochem
Experimental: KLK1 inhibitory activity in vitro was determined using standard published methods (see e.g. Johansen et al., Int. J. Tiss. Reac. 1986, 8, 185; Shori et al., Biochem. Pharmacol., 1992, 43, 1209; Stürzebecher et al., Biol. Chem. Hoppe-Seyler, 1992, 373, 1025). Human KLK1 (Callbiochem) was incubated at 25° C. with the fluorogenic substrate H-DVal-Leu-Arg-AFC and various concentrations of the test compound. Residual enzyme activity (initial rate of reaction) was determined by measuring the change in optical absorbance at 410 nm and the IC50 value for the test compound was determined.

[3] = test system: LPS-induced disseminated intravascular coagulation; conditions: cited from earlier work
blood = conditions: contacting blood with the substance; cited from earlier work
[4] = test system: intrinsic pathway of coagulation; conditions: in vitro; cited from earlier work
postoperative bleeding = conditions: in vivo; cited from earlier work

T1 sequence (P03951 388-625 limits assumed): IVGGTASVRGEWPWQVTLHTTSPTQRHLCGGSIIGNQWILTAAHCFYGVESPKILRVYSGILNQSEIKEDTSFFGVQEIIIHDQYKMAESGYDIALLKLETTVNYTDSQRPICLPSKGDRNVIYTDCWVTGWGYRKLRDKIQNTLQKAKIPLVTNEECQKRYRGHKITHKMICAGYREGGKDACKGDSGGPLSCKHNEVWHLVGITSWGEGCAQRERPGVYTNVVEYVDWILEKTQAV
T1 sequence (P03951 19-387 partner limits assumed): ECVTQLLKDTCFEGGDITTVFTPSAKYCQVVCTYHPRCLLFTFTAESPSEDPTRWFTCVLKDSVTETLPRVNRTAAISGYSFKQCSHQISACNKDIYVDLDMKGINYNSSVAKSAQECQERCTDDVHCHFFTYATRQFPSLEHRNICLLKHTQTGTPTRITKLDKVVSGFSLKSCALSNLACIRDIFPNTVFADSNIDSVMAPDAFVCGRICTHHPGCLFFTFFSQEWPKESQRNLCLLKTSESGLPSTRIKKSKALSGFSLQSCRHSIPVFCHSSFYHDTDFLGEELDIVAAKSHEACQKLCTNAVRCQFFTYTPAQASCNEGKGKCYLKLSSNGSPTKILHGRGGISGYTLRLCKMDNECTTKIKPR
T3 sequence (P06870 25-262): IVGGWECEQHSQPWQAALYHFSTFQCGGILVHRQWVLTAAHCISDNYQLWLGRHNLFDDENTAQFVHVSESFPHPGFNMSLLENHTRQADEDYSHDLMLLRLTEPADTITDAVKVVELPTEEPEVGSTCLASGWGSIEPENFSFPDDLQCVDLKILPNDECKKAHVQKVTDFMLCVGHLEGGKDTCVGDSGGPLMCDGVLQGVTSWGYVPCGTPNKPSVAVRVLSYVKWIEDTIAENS
T2 sequence (P00748 373-615 limits assumed, other chains not shown): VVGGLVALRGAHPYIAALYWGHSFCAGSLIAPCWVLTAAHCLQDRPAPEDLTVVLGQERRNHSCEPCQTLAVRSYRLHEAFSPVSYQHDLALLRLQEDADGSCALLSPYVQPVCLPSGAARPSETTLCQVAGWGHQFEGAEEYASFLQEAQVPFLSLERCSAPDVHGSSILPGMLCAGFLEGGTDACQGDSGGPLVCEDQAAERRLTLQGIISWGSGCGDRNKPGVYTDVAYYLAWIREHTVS

N=C(N)c1ccc(CNC(=O)c2cnn(Cc3ccccc3)c2)cc1 [ASP-440]
hematoma expansion (rats): reduced

COc1ccnc(CNC(=O)c2cn(Cc3ccc(Cn4ccccc4=O)cc3)nc2C(F)(F)F)c1F [Compound of Formula A, N-[(3-fluoro-4-methoxypyridin-2-yl)methyl]-1-({4-[(2-oxopyridin-1-yl)methyl]phenyl}methyl)-3-(trifluoromethyl)pyrazole-4-carboxamide]
IC50 (trypsin): > 40 µM | Cmax ([1]; po 2.2 mg/kg): 1800 ng/mL | Tmax ([1]; po 2.2 mg/kg): 0.5 h | pharmacokinetic properties, in particular in vitro permeability (in words) (Caco-2 monolayers): surprisingly good | Papp A→B at 1 h, 50 μM [2]: 17 ×10⁻⁶ cm/s

COCc1nn(Cc2ccc(Cn3ccccc3=O)cc2)cc1C(=O)NCc1nccc(OC)c1F [Example 41 of WO2016/083820, N-[(3-fluoro-4-methoxypyridin-2-yl)methyl]-3-(methoxymethyl)-1-({4-[(2-oxopyridin-1-yl)methyl]phenyl}methyl)pyrazole-4-carboxamide]
Cmax ([1]; po 10.5 mg/kg): 1530 ng/mL | Tmax ([1]; po 10.5 mg/kg): 3 h | IC50 (Human FXIa): > 40 µM | IC50 (Human Factor XIIa): > 40 µM | IC50 (Human KLK1): > 40 µM

Cl.NCC1CCC(C(=O)N[C@@H](Cc2ccccc2)C(=O)Nc2ccc(CC(=O)O)cc2)CC1 (stereo partly drawn) [PKSI-527]
decrease in platelet count and fibrinogen level, increase in FDP level [3]: significantly suppressed

Ecallantide
activated clotting time (ACT) (blood): increase | contact activated induced coagulation [4]: delay

aprotinin
postoperative bleeding (postoperative bleeding): decrease
